In patent US20250129430A1, “HIGH ATP-AFFINITY PROTEIN AS THERAPEUTIC TARGET FOR INTRACTABLE CANCER MOLECULAR SUBTYPES AND INHIBITOR THEREOF” (VeraVerse Co., Ltd., priority 2021, published 2025):

What was measured:
Assay in all cases: Cell viability drug screen, 12-point dose-response AUC
Format in all cases: cell-based, human
FU97 = test system: FU97; design: Average Area Under the Viability Curve (AUC), AUC norm value: scale not given here; conditions: FU97 cells; 72 hours
Method in brief: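 Trapezoidal AUC of a 12-point, DMSO-normalized dose-response curve. Luminescent viability was measured after 72 h of exposure at 37° C to half-log serial dilutions (0.5% DMSO control), dosed 24 h after plating FU97 cells at 5×10^3 per well.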

NCI_N87 = NCI_N87 cells; 72 hours
Method in brief: (§1)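 Each cell line receives a twelve-point half-log titration of drug beginning 24 h after plating 5×10^3 cells per well. Following 72 h culture at 37 °C, luminescent signal is recorded and expressed versus vehicle. AUC is derived by the trapezoidal method.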

AGS = AGS cells (non-SEM subtype); 72 hours
Method in brief: (§2)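 Luminescent viability readings, taken 15 min after reagent addition at room temperature, were normalized to the 0.5% DMSO control to build 12-point dose-response curves. Trapezoidal integration gave the AUC. Cells had been plated at 5×10^3 per well and then exposed to half-log dilutions for 72 h.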

SNU601 = SNU601 cells; 72 hours
Method in brief: as §1

SNU620 = SNU620 cells; 72 hours
Method in brief: as §1

SNU484 = SNU484 cells (SEM subtype); 72 hours
Method in brief: as §1

SNU668 = SNU668 cells (SEM subtype); 72 hours
Method in brief: as §1

NCC59 = NCC59 cells; 72 hours
Method in brief: as §1

YCC11 = YCC11 cells (SEM subtype); 72 hours
Method in brief: as §1

SNU16 = SNU16 cells; 72 hours
Method in brief: as §1

MKN28 = MKN28 cells; 72 hours
Method in brief: as §1

YCC2 = YCC2 cells; 72 hours
Method in brief: as §1

SK4 = SK4 cells (SEM subtype); 72 hours
Method in brief: as §1

SNU216 = SNU216 cells (non-SEM subtype); 72 hours
Method in brief: as §2

MKN74 = MKN74 cells; 72 hours
Method in brief: as §2

NCC19 = NCC19 cells; 72 hours
Method in brief: as §1

SNU1967 = SNU1967 cells; 72 hours
Method in brief: as §1

SNU1750 = SNU1750 cells (SEM subtype); 72 hours
Method in brief: as §1

Hs746T = Hs746T cells (SEM subtype); 72 hours
Method in brief: as §1

SNU719 = SNU719 cells; 72 hours
Method in brief: as §2

YCC3 = YCC3 cells; 72 hours
Method in brief: as §1

SNU638 = SNU638 cells; 72 hours
Method in brief: as §1

NCC20 = NCC20 cells; 72 hours
Method in brief: as §1

MKN45 = MKN45 cells (non-SEM subtype); 72 hours
Method in brief: as §2

KATO3 = KATO3 cells; 72 hours
Method in brief: as §1

SNU1 = SNU1 cells; 72 hours
Method in brief: as §1

NCC24 = NCC24 cells; 72 hours
Method in brief: as §1

OCUM1 = OCUM1 cells; 72 hours
Method in brief: as §1

MKN1 = MKN1 cells; 72 hours
Method in brief: as §1

Row | SMILES | Average Area Under the Viability Curve (AUC), AUC norm value (FU97) | Average Area Under the Viability Curve (AUC), AUC norm value (NCI_N87) | Average Area Under the Viability Curve (AUC), AUC norm value (AGS) | Average Area Under the Viability Curve (AUC), AUC norm value (SNU601) | Average Area Under the Viability Curve (AUC), AUC norm value (SNU620) | Average Area Under the Viability Curve (AUC), AUC norm value (SNU484) | Average Area Under the Viability Curve (AUC), AUC norm value (SNU668) | Average Area Under the Viability Curve (AUC), AUC norm value (NCC59) | Average Area Under the Viability Curve (AUC), AUC norm value (YCC11) | Average Area Under the Viability Curve (AUC), AUC norm value (SNU16) | Average Area Under the Viability Curve (AUC), AUC norm value (MKN28) | Average Area Under the Viability Curve (AUC), AUC norm value (YCC2) | Average Area Under the Viability Curve (AUC), AUC norm value (SK4) | Average Area Under the Viability Curve (AUC), AUC norm value (SNU216) | Average Area Under the Viability Curve (AUC), AUC norm value (MKN74) | Average Area Under the Viability Curve (AUC), AUC norm value (NCC19) | Average Area Under the Viability Curve (AUC), AUC norm value (SNU1967) | Average Area Under the Viability Curve (AUC), AUC norm value (SNU1750) | Average Area Under the Viability Curve (AUC), AUC norm value (Hs746T) | Average Area Under the Viability Curve (AUC), AUC norm value (SNU719) | other results
1 | CC(C)[C@H](C(=O)Nc1ccc(C(=O)NO)cc1)c1ccccc1 [AR-42 (HDAC-42), AR-42] | −1.358 | −0.1344 | −1.186 | 1.874 | −1.197 | 0.127 | 0.2515 | 2.102 | −0.3298 | −1.427 | 0.07777 | −0.00569 | −0.3617 | 0 | 0.1789 | 1.026 | −0.9137 | −1.401 | 0.3259 | 2.169 | Average Area Under the Viability Curve (AUC), AUC norm value (YCC3): 0.6875; Average Area Under the Viability Curve (AUC), AUC norm value (SNU638): −0.7804; Average Area Under the Viability Curve (AUC), AUC norm value (NCC20): 0.06736; Average Area Under the Viability Curve (AUC), AUC norm value (MKN45): 1.962; Average Area Under the Viability Curve (AUC), AUC norm value (KATO3): 0.7324; Average Area Under the Viability Curve (AUC), AUC norm value (SNU1): −0.3147; Average Area Under the Viability Curve (AUC), AUC norm value (NCC24): −0.6217; Average Area Under the Viability Curve (AUC), AUC norm value (OCUM1): −0.3936; Average Area Under the Viability Curve (AUC), AUC norm value (MKN1): 0.9532
2 | CC[C@@]1(O)C(=O)OCc2c1cc1n(c2=O)Cc2cc3ccccc3nc2-1 [Camptothecin] | 1.097 | 0.7261 | −1.989 | −1.853 | −1.867 | 1.047 | −1.202 | 1.208 | −0.5718 | −1.529 | 0.3881 | 0 | −0.8823 | 1.3094 | −0.08807 | 0.9854 | −1.86 | 0.02348 | 0.3026 | 3.079 | Average Area Under the Viability Curve (AUC), AUC norm value (YCC3): 1.3493; Average Area Under the Viability Curve (AUC), AUC norm value (SNU638): −0.9365; Average Area Under the Viability Curve (AUC), AUC norm value (NCC20): −1.829; Average Area Under the Viability Curve (AUC), AUC norm value (MKN45): 0.1203; Average Area Under the Viability Curve (AUC), AUC norm value (KATO3): 4.769; Average Area Under the Viability Curve (AUC), AUC norm value (SNU1): −2.182; Average Area Under the Viability Curve (AUC), AUC norm value (NCC24): 0.5273; Average Area Under the Viability Curve (AUC), AUC norm value (OCUM1): −0.5033; Average Area Under the Viability Curve (AUC), AUC norm value (MKN1): −0.642
3 | CC(C)n1nc(-c2ccc3oc(N)nc3c2)c2c(N)ncnc21 [INK 128 (MLN0128), INK 128] | −2.857 | 0.7081 | −1.244 | 1.346 | 0.08832 | −1.089 | 1.085 | 1.541 | −2.648 | −0.8733 | 1.195 | 0 | −2.931 | −0.9082 | −0.4883 | 0.3022 | −0.4728 | −1.079 | −1.821 | 3.8255 | Average Area Under the Viability Curve (AUC), AUC norm value (YCC3): 0.8535; Average Area Under the Viability Curve (AUC), AUC norm value (SNU638): 0.2387; Average Area Under the Viability Curve (AUC), AUC norm value (NCC20): −2.568; Average Area Under the Viability Curve (AUC), AUC norm value (MKN45): −0.5935; Average Area Under the Viability Curve (AUC), AUC norm value (KATO3): 1.633; Average Area Under the Viability Curve (AUC), AUC norm value (SNU1): 1.281; Average Area Under the Viability Curve (AUC), AUC norm value (NCC24): 0.7502; Average Area Under the Viability Curve (AUC), AUC norm value (OCUM1): 0.03105; Average Area Under the Viability Curve (AUC), AUC norm value (MKN1): −0.7444
4 | O=C(/C=C/c1cccnc1)NCCCCC1CCN(C(=O)c2ccccc2)CC1 [APO866 (FK866), APO866] | −3.149 | 0.8343 | 0 | 4.976 | 0.3488 | −6.823 | −3.304 | 0.7919 | −2.215 | −4.562 | −6.855 | 1.331 | 0.7403 | −5.897 | −6.53 | −4.01 | −3.653 | −3.767 | −4.382 | 1.275 | Average Area Under the Viability Curve (AUC), AUC norm value (YCC3): 1.423; Average Area Under the Viability Curve (AUC), AUC norm value (SNU638): 0.6032; Average Area Under the Viability Curve (AUC), AUC norm value (NCC20): 2.35; Average Area Under the Viability Curve (AUC), AUC norm value (MKN45): 0.6191; Average Area Under the Viability Curve (AUC), AUC norm value (KATO3): 1.553; Average Area Under the Viability Curve (AUC), AUC norm value (SNU1): 0.9726; Average Area Under the Viability Curve (AUC), AUC norm value (NCC24): −0.07585; Average Area Under the Viability Curve (AUC), AUC norm value (OCUM1): 0.949; Average Area Under the Viability Curve (AUC), AUC norm value (MKN1): −5.502
